Patent US12692221B2 (priority 2024, dated 2026)
“Also recorded” adds a separate entry of the source.

Assays:
[1] = molecular target: T1, alpha1D (h) (Homo sapiens, UniProt P25100); test: Radioligand binding alpha1D (h) (antagonist radioligand), [^3H]prazosin, CHO cells
T1 construct: expressed in transfected cells; host or cells: CHO cells
T1 sequence (P25100 1-572): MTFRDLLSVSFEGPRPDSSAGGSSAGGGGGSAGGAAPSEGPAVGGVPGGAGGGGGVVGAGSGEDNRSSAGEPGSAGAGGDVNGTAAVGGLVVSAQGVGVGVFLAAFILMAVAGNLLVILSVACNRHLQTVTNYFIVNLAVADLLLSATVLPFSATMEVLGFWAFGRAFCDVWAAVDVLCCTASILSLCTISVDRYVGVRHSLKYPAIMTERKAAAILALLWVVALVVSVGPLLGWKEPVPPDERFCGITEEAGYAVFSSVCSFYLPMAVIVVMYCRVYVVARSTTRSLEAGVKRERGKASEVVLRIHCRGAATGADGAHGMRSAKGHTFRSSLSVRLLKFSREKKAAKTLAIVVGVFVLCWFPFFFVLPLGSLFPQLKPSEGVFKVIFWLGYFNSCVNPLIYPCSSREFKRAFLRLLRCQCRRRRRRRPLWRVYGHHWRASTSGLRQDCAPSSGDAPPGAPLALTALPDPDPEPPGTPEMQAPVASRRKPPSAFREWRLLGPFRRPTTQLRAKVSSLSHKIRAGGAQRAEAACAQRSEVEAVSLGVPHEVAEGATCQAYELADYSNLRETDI
Description: (§1) Methods—Binding Assays: In vitro binding assays were performed using human recombinant receptors expressed in mammalian cell lines. Receptors were expressed in either HEK-293 or CHO cells depending on the target, and assay conditions (radioligand, concentration, nonspecific competitor, temperature, and incubation time) were optimized for each receptor. All assays were conducted in triplicate, and specific binding was quantified by scintillation counting as the detection method for each listed assay.
(§2) Specific binding was expressed as a percentage of control-specific binding, and percent inhibition was calculated using the formula in Ex. 8 above. Half-maximal inhibitory concentrations (IC50) were determined by non-linear regression analysis of the inhibition curves using the Hill equation (see Ex. 8). Inhibition constants (Ki) were calculated using the Cheng-Prusoff equation (see Ex. 8). KD values used in these calculations had been previously established for each receptor under the assay conditions (see Table 6). Data analysis was performed using software developed at Cerep and validated against SigmaPlot 4.0 for Windows.

[2] = molecular target: T2, CB2 (h) (Homo sapiens, UniProt P34972); test: Radioligand binding CB2 (h) (agonist radioligand), [^3H]WIN 55212-2, CHO cells
T2 construct: expressed in transfected cells; host or cells: CHO cells
Description: as §1, §2

[3] = molecular target: T3, CB1 (h) (Homo sapiens, UniProt P21554); test: Radioligand binding CB1 (h) (agonist radioligand), [^3H]CP 55940, Chem-RBL cells
T3 construct: expressed in transfected cells; host or cells: Chem-RBL cells

[4] = molecular target: T4, D1 (h) (Homo sapiens, UniProt P21728); test: Radioligand binding D1 (h) (antagonist radioligand), [^3H]SCH 23390, CHO cells
T4 construct: expressed in transfected cells; host or cells: CHO cells
Description: as §1, §2

[5] = tested on: NMDA; test: Radioligand binding NMDA (antagonist radioligand), [^3H]CGP 39653, rat cerebral cortex
[6] = molecular target: T5, M3 (h) (Homo sapiens, UniProt P20309); test: Radioligand binding M3 (h) (antagonist radioligand), [^3H]4-DAMP, CHO cells
T5 construct: expressed in transfected cells; host or cells: CHO cells
Description: as §1, §2

[7] = molecular target: T6, 5-HT1B (h) (Homo sapiens, UniProt P28222); test: Radioligand binding 5-HT1B (h) (antagonist radioligand), [^3H]GR125743, Chem-1 RBL cells
T6 construct: expressed in transfected cells; host or cells: Chem-1 RBL cells

[8] = molecular target: T7, norepinephrine transporter(h) (Homo sapiens, UniProt P23975); test: Radioligand binding NE transporter (h) (antagonist radioligand), [^3H]nisoxetine, CHO cells
T7 construct: expressed in transfected cells; host or cells: CHO cells
Description: as §1, §2

[9] = molecular target: T8, Acetylcholinesterase (h) (Homo sapiens, UniProt P22303); test: Enzyme assay Acetylcholinesterase (h), photometry; assay type: biochemical
T8 construct: purchased Eurofins Discovery (contract assay)
Description: Methods—Enzyme and Uptake Assays: In vitro enzyme and uptake assays were conducted by Eurofins Discovery using human recombinant enzymes expressed in various mammalian and insect cell lines. Enzymatic activity was measured using appropriate substrates or tracers under conditions optimized for each target, as detailed in Table 7. Reactions were incubated at room temperature for a defined duration and terminated according to established protocols. The measured components (either enzymatic products or remaining substrate) were quantified using fluorimetry, photometry, scintillation counting, or LANCE technology, depending on the assay. Assay-specific parameters, including substrate identity, cell line source, incubation time, and detection method, are provided in Table 7.
All measurements were performed in technical replicates to ensure reproducibility and data quality.
Results were expressed both as a percentage of control-specific activity and as percent inhibition of control-specific activity. Percent activity was calculated as (measured specific activity/control specific activity)×100, and percent inhibition as 100−[(measured specific activity/control specific activity)×100], based on values obtained in the presence of test compounds. IC50 and EC50 values, along with Hill coefficients (nH), were determined by nonlinear regression analysis of inhibition or concentration-response curves generated from mean replicate values. Hill curve fitting was performed as previously described using software developed at Cerep and validated against SigmaPlot® 4.0 for Windows® (© 1997 by SPSS Inc.).

[10] = tested on: male C57BL/6J mice; test: Mouse head-twitch response (HTR) assay, magnetometer; assay type: in vivo; details: i.p.; for HTR (head twitch response), in words: doses up to 30 mpk
[11] = tested on: male C57BL/6J mice; test: Motor activity / distance traveled measured in parallel with HTR; assay type: in vivo, mouse; details: i.p.; for motor activity, in words: magnetometer activity
[12] = molecular target: 5-HT2A (Homo sapiens, UniProt P28223); test: IP-One HTRF IP-1 accumulation functional assay, 5-HT2A-expressing HEK293; assay type: cell-based; parameters: host or cells: HEK293
Description: Methods (5-HT2A and 5-HT2C IP-One Functional Activity Assays): Intracellular accumulation of IP-1 was measured using an IP-One HTRF assay kit (Cat. #62IPAPEJ, Cisbio) at WuXi AppTec Co. Ltd. (Hong Kong) Discovery Biology Unit according to their standard protocols. Briefly, the reference compounds and screening compounds were 3.16-fold serially diluted in 100% DMSO for 10 points using Bravo. 70 nL of compounds were added to the assay plate using Echo555. Added 14 μL/7500 cells/well of 5-HT2A-expressing HEK293 or 5-HT2C-expressing HEK293 to the assay plate and incubate for 60 min at 37° C. Added 3 μL of IP-1 d2 Reagent working solution and 3 μL of IP-1 Tb Cryptate Antibody working solution to all wells. The plates were incubated for 1 hour at room temperature and read for fluorescence at 620 nm and 665 nm on an EnVision Multimode Plate Reader (PerkinElmer). The ratio of the acceptor and donor emission signals (665/620) were calculated for each individual well and substituted into the standard curve to obtain the log concentration of IP level. After converting to the antilog base IP-1, the average background control signal was subtracted from each well and values were normalized to the maximal response of 5-HT at 3 μM (100%). % MAX was calculated by taking the average normalized maximal response for each compound at the highest concentration tested. The data were analyzed using the four-parameter nonlinear regression curve-fitting function in GraphPad Prism 5 (GraphPad Software, San Diego, CA) to generate potency (EC50) values. The represented plots show normalized IP-1 values versus compound concentrations; the corresponding numerical data are parameter estimates for the concentration-response curve using the four-parameter nonlinear regression curve-fitting function in GraphPad Prism 10.

T6 sequence (P28222 whole entry): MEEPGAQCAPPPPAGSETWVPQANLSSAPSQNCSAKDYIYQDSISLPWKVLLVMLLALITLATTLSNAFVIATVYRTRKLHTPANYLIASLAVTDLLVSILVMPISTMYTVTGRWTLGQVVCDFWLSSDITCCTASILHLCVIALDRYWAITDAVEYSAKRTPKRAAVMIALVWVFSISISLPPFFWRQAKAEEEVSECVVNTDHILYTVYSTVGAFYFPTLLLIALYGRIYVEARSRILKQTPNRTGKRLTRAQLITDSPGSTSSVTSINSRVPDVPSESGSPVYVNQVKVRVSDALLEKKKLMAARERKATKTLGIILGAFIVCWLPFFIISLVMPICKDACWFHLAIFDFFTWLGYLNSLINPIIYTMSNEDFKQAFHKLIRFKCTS
5-HT2A, sequence (P28223 whole entry, looked up): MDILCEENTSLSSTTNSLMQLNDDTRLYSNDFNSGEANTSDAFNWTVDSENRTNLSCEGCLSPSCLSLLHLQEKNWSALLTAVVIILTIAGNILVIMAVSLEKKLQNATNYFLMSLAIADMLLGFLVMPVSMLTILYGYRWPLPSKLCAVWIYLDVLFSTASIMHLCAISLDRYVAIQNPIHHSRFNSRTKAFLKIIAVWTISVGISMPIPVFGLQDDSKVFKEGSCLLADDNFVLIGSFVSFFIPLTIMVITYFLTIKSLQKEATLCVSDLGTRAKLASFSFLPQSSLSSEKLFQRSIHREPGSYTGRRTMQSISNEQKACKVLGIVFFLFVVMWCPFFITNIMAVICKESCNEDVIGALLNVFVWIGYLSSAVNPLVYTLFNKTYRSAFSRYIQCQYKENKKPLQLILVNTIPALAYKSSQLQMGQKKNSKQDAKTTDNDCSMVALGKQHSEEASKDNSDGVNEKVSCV
T7 sequence (P23975 whole entry): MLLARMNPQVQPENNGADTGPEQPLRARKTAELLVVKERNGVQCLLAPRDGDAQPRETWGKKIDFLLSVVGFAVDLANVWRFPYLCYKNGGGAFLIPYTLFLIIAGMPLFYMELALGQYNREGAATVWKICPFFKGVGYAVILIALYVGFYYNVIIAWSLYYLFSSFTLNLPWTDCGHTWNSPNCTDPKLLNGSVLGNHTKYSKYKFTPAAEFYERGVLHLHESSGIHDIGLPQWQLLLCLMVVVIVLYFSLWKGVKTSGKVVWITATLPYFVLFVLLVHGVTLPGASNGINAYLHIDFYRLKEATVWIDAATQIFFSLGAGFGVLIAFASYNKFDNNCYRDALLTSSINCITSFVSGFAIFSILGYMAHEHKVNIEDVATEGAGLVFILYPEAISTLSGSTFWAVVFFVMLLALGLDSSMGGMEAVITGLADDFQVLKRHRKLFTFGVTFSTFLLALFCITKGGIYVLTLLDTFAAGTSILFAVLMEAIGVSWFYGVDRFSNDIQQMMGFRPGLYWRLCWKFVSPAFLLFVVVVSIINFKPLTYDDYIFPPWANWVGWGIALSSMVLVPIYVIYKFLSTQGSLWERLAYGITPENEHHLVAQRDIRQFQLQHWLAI
T5 sequence (P20309 whole entry): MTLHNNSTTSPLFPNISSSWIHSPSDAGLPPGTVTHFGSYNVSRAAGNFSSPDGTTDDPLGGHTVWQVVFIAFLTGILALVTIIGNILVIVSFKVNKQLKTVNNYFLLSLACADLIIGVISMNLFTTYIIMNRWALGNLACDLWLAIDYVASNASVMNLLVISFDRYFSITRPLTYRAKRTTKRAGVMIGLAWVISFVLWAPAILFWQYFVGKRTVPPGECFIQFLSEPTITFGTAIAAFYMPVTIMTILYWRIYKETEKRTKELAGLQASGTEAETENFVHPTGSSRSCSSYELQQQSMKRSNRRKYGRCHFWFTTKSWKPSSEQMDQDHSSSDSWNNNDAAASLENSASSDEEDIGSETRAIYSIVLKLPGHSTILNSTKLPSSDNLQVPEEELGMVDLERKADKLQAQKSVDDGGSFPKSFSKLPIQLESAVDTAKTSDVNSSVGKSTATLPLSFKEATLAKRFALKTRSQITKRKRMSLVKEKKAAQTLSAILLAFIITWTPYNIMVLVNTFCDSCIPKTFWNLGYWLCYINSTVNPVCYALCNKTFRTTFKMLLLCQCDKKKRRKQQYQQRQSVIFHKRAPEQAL
T2 sequence (P34972 whole entry): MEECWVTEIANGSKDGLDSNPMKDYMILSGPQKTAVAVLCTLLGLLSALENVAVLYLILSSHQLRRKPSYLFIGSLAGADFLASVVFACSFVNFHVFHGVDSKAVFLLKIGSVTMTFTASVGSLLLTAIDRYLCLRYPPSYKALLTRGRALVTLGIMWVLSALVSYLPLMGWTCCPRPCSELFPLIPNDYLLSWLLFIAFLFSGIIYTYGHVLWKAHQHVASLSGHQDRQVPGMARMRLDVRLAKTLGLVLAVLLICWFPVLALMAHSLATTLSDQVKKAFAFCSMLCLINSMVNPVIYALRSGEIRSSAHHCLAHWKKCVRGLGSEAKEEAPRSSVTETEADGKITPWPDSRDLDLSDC
T4 sequence (P21728 whole entry): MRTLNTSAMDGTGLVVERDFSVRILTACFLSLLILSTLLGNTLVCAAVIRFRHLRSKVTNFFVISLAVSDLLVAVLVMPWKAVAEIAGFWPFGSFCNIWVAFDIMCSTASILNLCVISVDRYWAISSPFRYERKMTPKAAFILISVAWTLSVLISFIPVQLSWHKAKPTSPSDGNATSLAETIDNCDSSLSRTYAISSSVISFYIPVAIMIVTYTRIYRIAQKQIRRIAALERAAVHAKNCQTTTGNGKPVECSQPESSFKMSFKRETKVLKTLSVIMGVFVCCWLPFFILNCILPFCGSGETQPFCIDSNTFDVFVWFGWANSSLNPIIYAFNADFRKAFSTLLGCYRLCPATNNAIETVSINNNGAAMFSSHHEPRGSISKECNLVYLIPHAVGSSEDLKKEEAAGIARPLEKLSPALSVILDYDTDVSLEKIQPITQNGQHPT
T8 sequence (P22303 32-614): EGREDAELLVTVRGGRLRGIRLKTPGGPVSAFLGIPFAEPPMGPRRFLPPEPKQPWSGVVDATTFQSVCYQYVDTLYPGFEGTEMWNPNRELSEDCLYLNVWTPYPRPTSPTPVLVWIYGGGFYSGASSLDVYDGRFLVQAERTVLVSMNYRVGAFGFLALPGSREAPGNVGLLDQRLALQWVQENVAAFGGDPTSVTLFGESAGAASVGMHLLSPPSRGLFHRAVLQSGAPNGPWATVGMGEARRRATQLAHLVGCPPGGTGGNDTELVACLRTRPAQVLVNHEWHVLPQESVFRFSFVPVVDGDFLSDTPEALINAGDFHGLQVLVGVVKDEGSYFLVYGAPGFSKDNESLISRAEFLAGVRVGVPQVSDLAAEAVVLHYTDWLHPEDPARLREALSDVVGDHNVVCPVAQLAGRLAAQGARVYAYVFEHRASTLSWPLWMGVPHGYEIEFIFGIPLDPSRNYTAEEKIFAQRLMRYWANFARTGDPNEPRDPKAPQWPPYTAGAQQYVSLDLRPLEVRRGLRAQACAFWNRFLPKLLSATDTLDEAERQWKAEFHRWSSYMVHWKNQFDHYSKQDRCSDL
T3 sequence (P21554 whole entry): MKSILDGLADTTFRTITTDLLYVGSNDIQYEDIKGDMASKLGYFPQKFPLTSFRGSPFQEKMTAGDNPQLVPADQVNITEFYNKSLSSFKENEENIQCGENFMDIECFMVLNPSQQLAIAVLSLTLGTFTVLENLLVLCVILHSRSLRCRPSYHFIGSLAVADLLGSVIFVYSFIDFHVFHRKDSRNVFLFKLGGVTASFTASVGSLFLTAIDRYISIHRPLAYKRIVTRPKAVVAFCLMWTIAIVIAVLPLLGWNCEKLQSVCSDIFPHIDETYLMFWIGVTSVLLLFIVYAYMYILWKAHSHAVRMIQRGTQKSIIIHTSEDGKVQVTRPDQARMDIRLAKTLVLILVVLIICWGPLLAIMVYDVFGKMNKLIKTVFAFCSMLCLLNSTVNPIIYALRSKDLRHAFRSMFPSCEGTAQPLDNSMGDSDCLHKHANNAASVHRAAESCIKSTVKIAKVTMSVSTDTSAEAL

SMILES	Mean Percent Inhibition of Control Specific Binding [1] [%]	Mean Percent Inhibition of Control Specific Binding [2] [%]	Mean Percent Inhibition of Control Specific Binding [3] [%]	Mean Percent Inhibition of Control Specific Binding [4] [%]	Mean Percent Inhibition of Control Specific Binding [5] [%]	Mean Percent Inhibition of Control Specific Binding [6] [%]	Mean Percent Inhibition of Control Specific Binding [7] [%]	Mean Percent Inhibition of Control Specific Binding [8] [%]	Mean Percent Inhibition of Control Specific Binding [9] [%]	HTR (head twitch response), in words [10]	motor activity, in words [11]	EC50 [12] [µM]	Distance traveled (locomotor activity), in words ([11]; 0.03-30 mpk, over 30 minutes)	ED50 based on HTR counts ([10]; HTR counts summed over a 30-60 min interval) [mpk]	motor activity ID50 [11] [mpk]
COCc1cc(CCN)c(O)cc1CC(C)C [2CiBu-2OH-5MM, 2-(2-aminoethyl)-5-isobutyl-4-(methoxymethyl)phenol]	11.8	−6.0	−1.9	4.0	−24.3	10.6	12.6	17.4	4.4	did not produce meaningful HTR across the tested dose range	–	–	–	–	–
COCCc1cc(CCN)c(OC)cc1Br [Compound 2CB-5ME, reference compound]	10.0	−22.8	4.0	28.1	3.5	47.9	91.4	11.4	−3.2	did not produce statistically significant changes in HTR	motor suppression reaching statistical significance at 30 mpk	0.227	–	–	–
COCc1cc(CCN)c(OC)cc1Br [Compound 2CB-5MM, 2-(4-bromo-2-methoxy-5-(methoxymethyl)phenyl)ethan-1-amine]	9.5	−14.9	−10.4	21.1	4.7	29.2	74.2	0.2	−3.5	did not elicit a significant HTR at any tested dose	–	0.0591	remained consistent across doses	–	–
COCc1cc(CCN)c(OC)cc1CC(C)C [Compound 2CiBu-5MM, 2-[4-isobutyl-2-methoxy-5-(methoxymethyl)phenyl]ethanamine]	0.5	17.8	−5.6	−1.4	12.0	31.8	57.3	−5.4	8.0	subtle suppression of HTR during the first 15 min followed by a rebound in HTR counts during the last 30 min segment; also recorded: HTR counts remained near baseline throughout the observation period; also recorded: overall neutral effect compared to vehicle HTR occurrences	statistically significant suppression of motor activity at the two highest doses tested of 10 and 30 mpk	0.341	–	5.926	> 3
